How the values were obtained:
BCAT2 = target: T1, BCAT2 (Homo sapiens, UniProt O15382); assay: BCAT2 enzyme inhibition (human); assay type: biochemical
T1 sequence (O15382 28-392): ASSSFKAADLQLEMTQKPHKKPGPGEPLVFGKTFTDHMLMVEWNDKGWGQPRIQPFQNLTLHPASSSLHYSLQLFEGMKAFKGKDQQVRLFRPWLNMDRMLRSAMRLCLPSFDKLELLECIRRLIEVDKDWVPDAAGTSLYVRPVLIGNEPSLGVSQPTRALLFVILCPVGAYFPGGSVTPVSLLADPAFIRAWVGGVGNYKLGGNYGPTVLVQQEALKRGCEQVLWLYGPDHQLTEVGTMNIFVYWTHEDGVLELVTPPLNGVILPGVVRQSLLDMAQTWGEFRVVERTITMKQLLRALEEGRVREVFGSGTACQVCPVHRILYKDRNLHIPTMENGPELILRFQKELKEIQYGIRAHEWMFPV
Outline: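 Cell-free coupled fluorescent assay: human BCATm converts branched-chain amino acids and α-ketoglutarate to L-glutamate, which L-glutamate oxidase and HRP link to resorufin formation from Amplex Red; activity taken as reduced glutamate signal.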

[1] = 3-HIB assay in vitro, direct MS assay of conditioned media; assay type: cell-based, human; conditions: Homo sapiens, 24 h, GM00371 cells, read-out: 3HIB INHIBITION IC50 (μM) MEAN GM00371 cells Direct MS Assay
Protocol: Cell Plating: Cells (Coriell Institute GM00371 cells) were plated (96-well clear bottom sterile plate; Greiner 655098) at 10,000 cells/0.1 mL in Eagle's minimum essential medium (EMEM)/15% FBS (Gibco 16000-044) with a Combi dispenser in a cell culture hood and incubated at 37° C. and 5% CO2 overnight.
Compound Dilution: Compound were prepared as 33.3× intermediate dilution in DMSO in 96 well round polystyrene plates. For 30 μM final maximum start with 30 μL of 10 mM in DMSO. 10-12 1:3 serial dilutions were prepared from left to right (20 μL+40 μL DMSO). A 10× secondary dilution was prepare in EMEM by taking 7.5 μL 33.3× and transfer to replicate 96 well round polystyrene plates and then adding 242.5 μL EMEM A 1× final dilution in EMEM was prepared by taking 50 μL 10× dilution and transferring to replicate 96 well polypropylene assay block (Costar 3956) and adding 450 μL EMEM A control was prepared for maximal compound inhibition by taking 20 μL 10 mM Reference Compound A and adding 40 μL DMSO for a concentration of 3.3 mM To 7.5 μL of the 3.3 mM Reference Compound A solution and added 242.5 μL EMEM to make a 100 μM solution. The subsequent Reference Compound A solution was diluted with EMEM to achieve a final concentration of 10 μM. The structure of Reference Compound A is:
A control was prepared for maximal compound toxicity by taking 7.5 μL Reference Compound B and 242.5 μL EMEM to make […]. 50 μL of that 100 μM Reference Compound B solution was combined with 450 μL EMEM to achieve a concentration of 30 μM. The structure of Reference Compound B is
A DMSO Control was prepared by dilution 7.5 μL with 242.5 μL EMEM and taking 50 μL of the subsequent solution and diluting with 450 μL EMEM.
Compound Treatment: Media was aspirated from the cells and 100 μL of D-PBS (ThermoFisher 14190144) was added and then removed. 100 μL of diluted compound was added to the cells in the place and the cells were incubated at 37° C. and 5% CO2 for 24 hours.
Collection of Conditioned Media: For 3HIB MS detection: 20 μL conditioned media was removed from the cells and was transferred to a labeled replicate 96 well polypropylene assay plate (VWR 62408-946). And the plate was heat sealed and stored at −80° C.
3HIB Derivatization (Generalized SOP): The media collected for 3HIB MS detection was derivatized under the following conditions. Buffer: 0.1M 1-Ethyl-3-(3-dimethylaminopropyl)carbodiimide (EDC) dissolved in 0.1 M 2-(N-morpholino)ethanesulfonic acid ([…]) adjusted to pH 5.6. Buffer prep: weighed 10.6 g MES (Sigma #M-5287) per 500 mL HPLC grade H2O. Stored at 4° C.; 0.1M EDC: Weighed 1.971 g EDC (#E-1769) per 100 mL MES. Adjusted pH to 5.6 with ˜40 drops of 1N NaOH and stored at 4° C. Buffer has a short half-life should be used within two weeks.
Derivatization: To 20 μL sample was added 60 μL 5 uM 3HIB-4C13 internal standard followed by 20 μL EDC in MES and 100 μL MES. The plate was sealed and incubate at 50° C. for […] then centrifuged at 4000 rpm at 6° C. for 10 minutes. LC-MS analysis was then conducted and the data was processed using standard methods.

GM00371 cells = assay: Viability assay (Cell titer glo) in the 3-HIB assay; assay type: cell-based, human; conditions: Homo sapiens, 24 h, read-out: 3HIB INHIBITION IC50 (μM) MEAN GM00371 cells Viablility Assay
Outline: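 GM00371 cells (10,000/well, EMEM/15% FBS) were exposed for 24 h at 37 °C to compounds in 1:3 serial dilution from 30 μM top concentration in EMEM. Reference Compound B at 30 μM served as maximal-toxicity control. Viability read as CellTiter-Glo luminescence.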

BCAT1 = target: T2, BCAT1 (Homo sapiens, UniProt P54687); assay: BCAT1 enzyme inhibition (human), Glutamate Glo luminescence; assay type: biochemical
T2 sequence (P54687 1-386): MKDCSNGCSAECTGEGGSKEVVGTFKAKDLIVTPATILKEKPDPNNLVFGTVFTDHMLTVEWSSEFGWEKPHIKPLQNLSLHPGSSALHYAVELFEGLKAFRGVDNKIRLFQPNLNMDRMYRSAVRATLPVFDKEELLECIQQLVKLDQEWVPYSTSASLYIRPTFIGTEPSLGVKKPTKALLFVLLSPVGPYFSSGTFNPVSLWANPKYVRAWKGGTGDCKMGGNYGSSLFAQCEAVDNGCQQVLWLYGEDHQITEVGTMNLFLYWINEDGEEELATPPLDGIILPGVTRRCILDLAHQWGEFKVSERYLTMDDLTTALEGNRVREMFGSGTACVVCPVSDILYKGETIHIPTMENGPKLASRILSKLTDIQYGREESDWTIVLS
Protocol: The BCAT1 inhibitory activity of selected compounds of the present disclosure were also evaluated. Compounds were prepared as up to 10 mM stock solutions generally using DMSO as the vehicle. 10-point dose response curves were generated using the Echo-550 (Labcyte) acoustic dispenser. Compound source plates ([…]) were made by serially diluting compound stocks to create 1 mM, 0.1 mM, and 0.01 mM solutions in DMSO into Echo certified LDV plates. The Echo then serially spotted 100% DMSO stock solutions into source dose response plates to generate a semi-log fold dilution scheme. 100% DMSO was added to the spotted dose response plates to bring the final volume to 5 μL, creating a 333× stock plate. 120 nL of the dose response stock plate was then spotted into the assay plate. 10 μL of assay buffer (50 mM Tris with 0.05% TWEEN-20) was then added to the plates resulting in a 4× working concentration in the assay plate. Final assay test concentration range was 3 μM to 0.0001 μM with a final DMSO concentration of 0.3%.
BCAT1 enzyme stock was first diluted to a 4× working concentration of 0.24 μg/mL in assay buffer (final assay concentration is 0.06 ug/ml). 10 μL of the 4×BCAT1 solution was then added to the previously prepared assay plate containing test compound or controls, and incubated at room temperature, protected from light, for either 10 or 60 minutes. After the compound incubation period, 20 μL of assay buffer plus 2× substrate is added to all wells (Final assay concentration of substrates is 300 μM L-leucine and 250 μM alpha-ketoglutaric acid). Enzyme reaction was then incubated for 10 minutes at room temperature. After the 10 minute incubation, the enzymatic reaction was halted with the addition of 5 μL of 0.6N HCl and incubated for 1 min. 5 μL of 1M Tris (pH 8.0) was then added to neutralize pH. 12.5 μL of the quenched assay volume was then transferred to a white, 384 well plate and 12.5 μL of Glutamate detection reagent was added (detection reagent prepared per Promega Glutamate Glo kit instructions). Plates were then incubated for 30 minutes at room temperature, protected from light. After glutamate detection incubation period, luminescence was read on BMG Novostar and relative light units was measured and exported for analysis.
Compound modulation of BCAT1 enzymatic activity was determined as follows. IC50 values were calculated in ActivityBase, using a 4-parameter fit equation. Data was normalized to maximum inhibition form the reference agent VS558CSA (at 10 μM). Relative light units were exported for analysis and % inhibition values for each well were calculated using the following formula: […]

Row | SMILES | IC50 (BCAT2) [nM] | IC50 [1] [µM] | IC50 (GM00371 cells) [µM] | IC50 (BCAT1) [nM]
1 | CNC(=O)c1ccc2c(c1)nc(-c1ccccn1)n2[C@H]1CCC[C@@H](NC(=O)c2ccc(Cl)s2)C1 [Compound 141] | < 100 | ≥ 1 | ≥ 1 | –
2 | CNC(=O)c1ccc2c(c1)nc(-c1cccs1)n2[C@H]1CCC[C@@H](NC(=O)c2ccc(C#N)s2)C1 [Compound 181] | < 100 | ≥ 1 | ≥ 1 | –
3 | CNC(=O)c1ccc2c(c1)nc(-c1ccccn1)n2[C@H]1CC[C@@H](NC(=O)c2ccc(C#N)s2)C1 [Compound 131] | 500 to 1000 | ≥ 1 | ≥ 1 | –
4 | CNC(=O)c1ccc2c(c1)nc(-c1ccccn1)n2[C@@H]1CCC[C@H](NC(=O)c2cccc(Br)c2)C1 [Compound 116] | > 1000 | ≥ 1 | ≥ 1 | –
5 | CNC(=O)c1ccc2c(c1)nc(-c1ncccc1C#N)n2[C@H]1CCC[C@@H](NC(=O)c2ccc(Br)s2)C1 [Compound 185] | < 100 | 0.5 to 1 | 0.5 to 1 | –
6 | CNC(=O)c1ccc2c(c1)nc(-c1ccccc1NC(C)=O)n2[C@H]1CCC[C@@H](NC(=O)c2ccc(Br)s2)C1 [Compound 129] | 100 to 500 | ≥ 1 | ≥ 1 | –
7 | O=C(N[C@@H]1CCC[C@H](n2c(-c3ccccn3)nc3cc(Cl)ncc32)C1)c1ccc(Br)s1 [Compound 296] | < 100 | 0.1 to 0.5 | 0.5 to 1 | –
8 | CNC(=O)c1ccc2c(c1)nc(-c1ccccn1)n2[C@@H]1CCC[C@H](NC(=O)c2ccc(C(F)(F)F)s2)C1 [Compound 113] | < 100 | ≥ 1 | 0.5 to 1 | –
9 | CNC(=O)c1ccc2c(c1)nc(-c1cc(F)ccc1F)n2[C@H]1CCC[C@@H](NC(=O)c2ccc(Br)s2)C1 [Compound 175] | < 100 | < 0.1 | 0.1 to 0.5 | –
10 | CNC(=O)c1ccc2c(c1)nc(-c1c(O)cccc1F)n2[C@H]1CCC[C@@H](NC(=O)c2ccc(C#N)s2)C1 [Compound 172] | < 100 | 0.1 to 0.5 | 0.1 to 0.5 | –
11 | CNC(=O)c1ccc2c(c1)nc(-c1ccc(F)cc1O)n2[C@H]1CCC[C@@H](NC(=O)c2ccc(C#N)s2)C1 [Compound 188] | < 100 | 0.1 to 0.5 | – | –
12 | CNC(=O)c1ccc2c(c1)nc(-c1ccc(F)cc1F)n2[C@H]1CCC[C@@H](NC(=O)c2ccc(Br)s2)C1 [Compound 176] | < 100 | 0.1 to 0.5 | 0.1 to 0.5 | –
13 | CNC(=O)c1ccc2c(c1)nc(-c1ccccn1)n2[C@@H]1CCC[C@H](NC(=O)c2ccc([N+](=O)[O-])s2)C1 [Compound 107] | 500 to 1000 | ≥ 1 | ≥ 1 | –
14 | CNC(=O)c1ccc2c(c1)nc(-c1ncccc1F)n2[C@H]1CCC[C@@H](NC(=O)c2ccc(C#N)s2)C1 [Compound 198] | < 100 | – | ≥ 1 | 100 to 500
15 | CNC(=O)c1cc2nc(-c3ccccn3)n(C3COCC(NC(=O)c4ccc(Br)s4)C3)c2cc1F (stereo not shown) [Compound 234, 1-(5-(5-bromothiophene-2-carboxamido)tetrahydro-2H-pyran-3-yl)-6-fluoro-N-methyl-2-(pyridin-2-yl)-1H-benzo[d]imidazole-5-carboxamide] | < 100 | – | ≥ 1 | 100 to 500
16 | O=C(N[C@@H]1CCC[C@H](n2c(-c3ncccc3F)nc3cnccc32)C1)c1ccc(Br)s1 [Compound 284] | < 100 | – | ≥ 1 | 100 to 500
17 | CNC(=O)c1cc2nc(-c3sccc3F)n([C@H]3CCC[C@@H](NC(=O)c4ccc(Cl)s4)C3)c2cc1F [Compound 230] | < 100 | – | ≥ 1 | 500 to 1000
18 | CNC(=O)c1ccc2c(c1)nc(-c1ccccc1C(N)=O)n2[C@H]1CCC[C@@H](NC(=O)c2ccc(Br)s2)C1 [Compound 143] | < 100 | – | ≥ 1 | ≥ 1000
19 | CC(=O)c1ccc2c(c1)nc(-c1ccccn1)n2[C@H]1CCC[C@@H](NC(=O)c2ccc(Br)s2)C1 [Compound 196] | < 100 | – | ≥ 1 | ≥ 1000
20 | CNC(=O)c1ccc2c(c1)nc(-c1cccs1)n2[C@H]1CCC[C@@H](NC(=O)c2ccc(Cl)s2)C1 [Compound 189] | < 100 | 0.1 to 0.5 | – | –
